# Experimental data taken from patent US11419862B2, “Quinoline derivative for treatment of nasopharyngeal carcinoma” (CHIA TAI TIANQING PHARMACEUTICAL GROUP CO., LTD., priority 2018, dated 2022).
# Structures can show the parent of a compound that is named as a salt.
# Tested on: nasopharyngeal carcinoma
# Assay: Efficacy on nasopharyngeal carcinoma: patient case reports treated orally with capsules of the compound of Example 1
# Assay type: in vivo, human
# Set-up: key to evaluation according to RECIST 1.1: CR: complete remission, which means that target lesions of tumors have disappeared and no new lesions appear which is maintained for at least 4 weeks; PR: partial remission, which means 30% or more decrease in the sum of the diameters of target lesions of tumors than the baseline level, which is maintained for at least 4 weeks; PD: the progression of disease, which means 20% or more increase in the diameters of target lesions of tumors than the baseline level; SD: stable disease, which means the sum of diameters of all target leisions neither shrink to qualify for PR nor sufficient increase to qulify for PD
# Procedure: During or after radiotherapy, the patients are treated with the capsules of the compound of Example 1 at 12 mg qd. The administration is continuously performed for 2 weeks and rest for 1 week, followed by continuously administrating for 2 weeks and resting for 1 week as a cycle. The target lesions are regularly evaluated, and the treatment regimen is terminated according to the evaluation results.
# Subsequently, the patient took orally the capsules of 12 mg of the compound of Example 1 once per day for treatment (continuously administrating for 2 weeks and resting for 1 week as a treatment cycle). […] After 4 cycles of treatment, evaluated as PR according to RECIST 1.1, and the sum of the target lesions was 10 mm, which was reduced by 9 mm from the baseline. After 8 cycles of treatment, the sum of the target lesions was 9 mm, which was reduced by 10 mm from the baseline.
# From Mar. 2, 2017, the patient started to take orally the capsules of 12 mg of the compound of Example 1 once per day for treatment (continuously administrating for 2 weeks and resting for 1 week as a treatment cycle). On Apr. […] The treatment with the capsules of the compound of Example 1 was continued.
# Three months later, the patient started to take orally the capsules of 12 mg of the compound of Example 1 once per day for treatment (continuously administrating for 2 weeks and resting for 1 week as a treatment cycle). […] The treatment with the capsules of the compound of Example 1 was continued.
# [1] = Example 4, patient, 12 mg once per day orally, after 2 cycles
# [2] = Example 4, patient, 12 mg once per day orally, after 4 cycles
# [3] = Example 4, patient, 12 mg once per day orally, after 8 cycles
# [4] = Example 5, patient, 12 mg once per day orally, after 2 cycles
# [5] = Example 5, patient, 12 mg once per day orally, after 4 cycles
# [6] = Example 5, patient, 12 mg once per day orally, after 6 cycles
# [7] = Example 5, patient, 12 mg once per day orally, after 12 cycles
# [8] = Example 5, patient, 12 mg once per day orally, after 16 cycles
# [9] = Example 6, patient, 12 mg once per day orally, after 2 cycles
# [10] = Example 6, patient, 12 mg once per day orally, after 4 cycles
compound,measurement,setting,value
"COc1cc2c(Oc3ccc4[nH]c(C)cc4c3F)ccnc2cc1OCC1(N)CC1 [Example 1, 1-[[[4-fluoro-2-methyl-1H-indol-5-yl)oxy-6-methoxyquinolin-7-yl]oxy]methyl]cyclopropylamine dihydrochloride]",evaluation according to RECIST 1.1,"Example 4, patient, 12 mg once per day orally, 2 weeks on/1 week off, after 2 cycles","PR (partial remission, which means 30% or more decrease in the sum of the diameters of target lesions of tumors than the baseline level, which is maintained for at least 4 weeks)"
same,reduction of sum of the target lesions from the baseline,[1],7 mm
same,sum of the target lesions,[1],12 mm
same,evaluation according to RECIST 1.1,[2],"PR (partial remission, which means 30% or more decrease in the sum of the diameters of target lesions of tumors than the baseline level, which is maintained for at least 4 weeks)"
same,reduction of sum of the target lesions from the baseline,[2],9 mm
same,sum of the target lesions,[2],10 mm
same,reduction of sum of the target lesions from the baseline,[3],10 mm
same,sum of the target lesions,[3],9 mm
same,adverse reaction during the administration,"Example 4, patient, 12 mg once per day orally, relieved after medication and dosage reduction",Grade 3 hypertension
same,evaluation according to RECIST 1.1,"Example 5, patient, 12 mg once per day orally, 2 weeks on/1 week off, after 2 cycles","PR (partial remission, which means 30% or more decrease in the sum of the diameters of target lesions of tumors than the baseline level, which is maintained for at least 4 weeks)"
same,reduction of sum of the target lesions from the baseline,[4],17 mm
same,sum of the target lesions,[4],30 mm
same,evaluation according to RECIST 1.1,[5],"PR (partial remission, which means 30% or more decrease in the sum of the diameters of target lesions of tumors than the baseline level, which is maintained for at least 4 weeks)"
same,reduction of sum of the target lesions from the baseline,[5],19 mm
same,sum of the target lesions,[5],28 mm
same,evaluation according to RECIST 1.1,[6],"PR (partial remission, which means 30% or more decrease in the sum of the diameters of target lesions of tumors than the baseline level, which is maintained for at least 4 weeks)"
same,reduction of sum of the target lesions from the baseline,[6],23 mm
same,sum of the target lesions,[6],24 mm
same,evaluation according to RECIST 1.1,[7],"PR (partial remission, which means 30% or more decrease in the sum of the diameters of target lesions of tumors than the baseline level, which is maintained for at least 4 weeks)"
same,reduction of sum of the target lesions from the baseline,[7],23 mm
same,sum of the target lesions,[7],24 mm
same,evaluation according to RECIST 1.1,[8],"PR (partial remission, which means 30% or more decrease in the sum of the diameters of target lesions of tumors than the baseline level, which is maintained for at least 4 weeks)"
same,reduction of sum of the target lesions from the baseline,[8],24 mm
same,sum of the target lesions,[8],23 mm
same,evaluation according to RECIST 1.1,"Example 6, patient, 12 mg once per day orally, 2 weeks on/1 week off, after 2 cycles",SD
same,reduction of sum of the target lesions from the baseline,[9],18 mm
same,sum of the target lesions,[9],47 mm
same,evaluation according to RECIST 1.1,[10],"PR (partial remission, which means 30% or more decrease in the sum of the diameters of target lesions of tumors than the baseline level, which is maintained for at least 4 weeks)"
same,reduction of sum of the target lesions from the baseline,[10],23 mm
same,sum of the target lesions,[10],42 mm
same,adverse reaction during the administration,"Example 6, patient, alleviated by antihypertensive drugs and dose reduction to 10 mg and 8 mg",Grades 2 and 3 hypertension
